Source: patent US11434234B2, “Methods and agents for treating disease” (ANGION BIOMEDICA CORP., priority 2014, dated 2022)
pIC50: −log10 of the molar value.

Experiments:
[1] = target: T1, aldosterone synthase (Homo sapiens, UniProt P19099); assay: Ang-II stimulated aldosterone production in H295R cells (ELISA); type: cell-based
T1 construct: host or cells: H295R human adrenocortical carcinoma cells
T1 sequence (P19099 25-503): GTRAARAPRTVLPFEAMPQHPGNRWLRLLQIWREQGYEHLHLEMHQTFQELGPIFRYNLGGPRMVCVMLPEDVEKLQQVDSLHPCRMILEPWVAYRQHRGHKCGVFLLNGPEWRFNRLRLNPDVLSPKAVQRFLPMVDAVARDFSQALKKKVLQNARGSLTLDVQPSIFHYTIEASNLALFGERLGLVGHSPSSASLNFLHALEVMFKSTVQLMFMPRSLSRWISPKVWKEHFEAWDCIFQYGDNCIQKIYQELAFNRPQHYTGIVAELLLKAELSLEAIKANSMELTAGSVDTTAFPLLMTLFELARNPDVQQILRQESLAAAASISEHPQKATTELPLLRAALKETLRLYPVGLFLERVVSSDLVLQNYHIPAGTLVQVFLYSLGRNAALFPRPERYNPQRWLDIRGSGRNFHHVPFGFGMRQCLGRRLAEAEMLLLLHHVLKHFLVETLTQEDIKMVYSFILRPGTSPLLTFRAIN
Experimental: To test the activity of compounds in a cell-based assay, a well-established assay described in the literature was used [Muller-Vieira U, Angotti M, Hartmann R W. The adrenocortical tumor cell line NCI-H295R as an in vitro screening system for the evaluation of CYP11B2 (aldosterone synthase) and CYP11B1 (steroid-11beta-hydroxylase) inhibitors. […] In brief, human adrenocortical carcinoma cells (H295R; ATCC CRL-2128) were plated in 96-well plates and the effect of compounds on angiotensin-II (Ang-II) stimulated aldosterone production was determined in the supernatant using an ELISA kit (Genway 40-521-475012). […] Compounds were tested in the aldosterone production assay at various concentrations and from dose-response inhibition curves the % inhibition at specific concentrations and the IC50 were calculated.

[2] = target: T2, human CYP11B2 (Homo sapiens, UniProt P19099); assay: Aldosterone inhibitory activity in V79 cells expressing human CYP11B2; type: cell-based; conditions: V79 Chinese hamster cells stably transfected with human CYP11B2; substrate 11-deoxycorticosterone 100 nM; read-out: IC50, inhibition of the production of aldosterone
T2 construct: expressed in transfected cells; host or cells: V79 Chinese hamster cells
T2 sequence (P19099 25-503): T1 sequence (P19099 25-503)
Experimental: For the determination of aldosterone inhibitory activity, tests were carried out using V79 Chinese hamster cells stably transfected with human CYP11B2 or CYP11B1 and using assay protocols as described in Ehmer P B, Bureik M, Bernhardt R, Muller U, Hartmann R W. Development of a test system for inhibitors of human aldosterone synthase (CYP11B2): screening in fission yeast and evaluation of selectivity in V79 cells. J. Steroid Biochem. Mol. Biol. 2002 June; 81(2):173-9. The concentration of the substrate 11-deoxycorticosterone in the assay was 100 nM.

Compound | Ang-II stimulated aldosterone production [1] | basal aldosterone production [1] | pIC50 [2]
CCOC(=O)c1cncn1[C@H](C)c1ccccc1 [etomidate] | significantly inhibited | significantly inhibited | 
CC(=O)N1CCN(c2ccc(OCC3COC(Cn4ccnc4)(c4ccc(Cl)cc4Cl)O3)cc2)CC1 (centres unmarked) [ketoconazole] | significantly inhibited | significantly inhibited | 
CCCC(O)(c1nc2cccc(Br)c2s1)c1cnccc1OC (centres unmarked) [Example 24, 1-(7-bromobenzo[d]thiazol-2-yl)-1-(4-methoxypyridin-3-yl)butan-1-ol] |  |  | > 6.00
CC(C)c1ccncc1C(O)(c1nc2ccc(Br)cc2s1)C(C)C (centres unmarked) [Example 33, 1-(6-bromobenzo[d]thiazol-2-yl)-1-(4-isopropylpyridin-3-yl)-2-methylpropan-1-ol] |  |  | > 6.00
CCCC(O)(c1nc2cc(Cl)c(OCC(F)(F)F)cc2s1)c1cnccc1OCC (centres unmarked) [Example 69, 1-(5-chloro-6-(2,2,2-trifluoroethoxy)benzo[d]thiazol-2-yl)-1-(4-ethoxypyridin-3-yl)butan-1-ol] |  |  | > 6.00
CCCC(O)(c1nc2ccc([N+](=O)[O-])cc2s1)c1cnccc1OCC (centres unmarked) [Example 40, 1-(4-ethoxypyridin-3-yl)-1-(6-nitrobenzo[d]thiazol-2-yl)butan-1-ol] |  |  | > 6.00
CCCOc1ccncc1C(O)(CCC)c1nc2ccc(OC(F)(F)F)cc2s1 (centres unmarked) [Example 51, 1-(4-propoxypyridin-3-yl)-1-(6-(trifluoromethoxy)benzo[d]thiazol-2-yl)butan-1-ol] |  |  | > 6.00
CC(C)Oc1ccncc1C(O)(c1nc2ccc(Br)cc2s1)C(C)C (centres unmarked) [Example 35, 1-(6-bromobenzo[d]thiazol-2-yl)-1-(4-isopropoxypyridin-3-yl)-2-methylpropan-1-ol] |  |  | > 6.00
CCCC(O)(c1nc2cc(F)c(OC(F)(F)F)cc2s1)c1cnccc1OCC (centres unmarked) [Example 62, 1-(4-ethoxypyridin-3-yl)-1-(5-fluoro-6-(trifluoromethoxy)benzo[d]thiazol-2-yl)butan-1-ol] |  |  | > 6.00
